Experiment [1] addresses T1, human TRH receptor (Homo sapiens, UniProt P34981).
T1 sequence (P34981 1-398): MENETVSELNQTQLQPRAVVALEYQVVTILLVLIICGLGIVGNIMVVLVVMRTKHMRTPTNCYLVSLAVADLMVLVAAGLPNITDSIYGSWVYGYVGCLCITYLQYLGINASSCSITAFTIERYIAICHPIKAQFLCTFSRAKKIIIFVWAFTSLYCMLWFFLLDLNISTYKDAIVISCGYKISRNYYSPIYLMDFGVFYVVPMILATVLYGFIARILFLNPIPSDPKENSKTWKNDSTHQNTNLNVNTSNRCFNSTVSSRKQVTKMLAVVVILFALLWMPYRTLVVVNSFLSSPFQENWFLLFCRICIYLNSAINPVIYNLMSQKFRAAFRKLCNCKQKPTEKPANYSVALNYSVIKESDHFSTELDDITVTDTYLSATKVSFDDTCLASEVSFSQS
As to the kind of experiment: [3H]TRH binding to Sf9 cells infected with recombinant baculovirus carrying human TRH receptor genes (Example 3). Also noted: translation frame (open reading frame) of the human TRH receptor was constructed on pUC118; expressed in transfected cells. As to conditions: 1000-fold unlabeled TRH (10 μM) (FIG. 8).

In experiment [2] the target is T1, human TRH receptor. As to the kind of experiment: c-fos promoter / secretive alkaline phosphatase assay in human TRH receptor expression CHO cells (Example 9). It is filed as cell-based. More on the design: translation frame (open reading frame) of the human TRH receptor was constructed on pUC118; expressed in transfected cells; host or cells: CHO dhfr- cells (plasmid pAKKO1.11 with the human TRH receptor open reading frame). The settings on record: c-fos promoter activation, overnight (FIG. 14).
Experimental: An insertion of a secretive alkaline phosphatase gene linked to a c-fos promoter into a TRH receptor expression cell was conducted as follows:
5×10^5 TRH receptor expression CHO cells were inoculated onto a 10 cm plate and they were cultivated for 24 hours in Ham's F12 medium (Lifetech Oriental) equipped with 10% fetal bovine serum. 3 μg of a vector (pSVP4-Ap-neo, FIG. 13) which was introduced by a secretive alkaline phosphatase gene downstream from the c-fos promoter was introduced into the CHO cells using a gene introducing kit (Cell Phect, Pharmacia) by calcium phosphate method. The cells introduced by the vector were cloned in the above-described medium equipped with 500 μg/ml of G418. 39 clones were isolated and clones which have high TRH responsiveness were further selected.
Cell stimulating activity through a TRH receptor using activation of c-fos promoter as an indicator was assayed as follows:
Each 5×10^4 of the above-described transformants were inoculated onto 96 hole plates for tissue cultivation (Corning) and they were cultivated for a night. […] The plate was assayed by a fluorescence plate reader (Fluoroskan II, Titertek) at 365 nm of excitation and 450 nm of luminescence.

The subject of experiment [3] is CHO dhfr- cells. As to the kind of experiment: Release of [3H]-labeled arachidonic acid from control CHO dhfr- cells (Example 7). It is filed as cell-based, Chinese hamster. As to conditions: TRH added (FIG. 10). How it is done:
(§1) CHO cells into which the human TRH receptor DNAs obtained in Example 4 were subcultured at a density of 1.0×10^6 cells/well to a 12-well tissue culture plate (Sumitomo Bakelite) and cultivated for 24 hours. The medium was removed and replaced by a fresh medium. Then, [^3 H] […] arachidonic acid (du Pont/NEN, specific activity: 60-100 Ci/mmol) was added to give a concentration of 0.5 μCi/well. After addition of arachidonic acid, the cells were further cultivated for 24 hours, and washed three times with Hanks' balanced salt solution (HBSS) supplemented with 0.05% BSA. Thereafter, 495 μl/well of HBSS supplemented with 0.05% BSA was added thereto. Then, 5 μl of a test solution was added thereto, and incubation was conducted for 30 minutes at room temperature to release arachidonic acid in the medium. HBSS (400 μl) of the supernatant was recovered, and mixed with liquid scintillator A (Wako Pure Chemical Industries). The amount of released [^3 H]-labeled arachidonic acid was measured by use of a liquid scintillation counter (Beckmann).

Experiment [4] addresses T1, human TRH receptor. Briefly: Antagonism of [3H]TRH binding in CHO dhfr- cells transformed with human TRH receptor DNA (Examples 5 and 6). More on the design: translation frame (open reading frame) of the human TRH receptor was constructed on pUC118; expressed in transfected cells; host or cells: CHO dhfr- cells (plasmid pAKKO1.11 with the human TRH receptor open reading frame). The settings on record: 1 h.

Experiment [5] has as its target T1, human TRH receptor. Briefly: Release of [3H]-labeled arachidonic acid from CHO cells into which human TRH receptor DNAs were introduced (Example 7). It is filed as cell-based. Also noted: translation frame (open reading frame) of the human TRH receptor was constructed on pUC118; expressed in transfected cells; host or cells: CHO dhfr- cells (plasmid pAKKO1.11 with the human TRH receptor open reading frame). The settings on record: TRH concentration dependence, compared with control (HBSS alone) (FIG. 10). How it is done:
as §1
Further, in the receptor binding experiment of Example 6, the releasing activity of arachidonic acid was measured using 4 kinds of compounds strongly that can antagonize the binding of [^3 H]

The test system of another experiment is pituitary glands. As to conditions: literature; cited from earlier work.
In experiment [6] the test system is CHO dhfr- cells. Briefly: [3H]TRH binding to CHO dhfr- cell line into which no human TRH receptor DNA was introduced (Example 4). More on the design: species or system Chinese hamster. As to conditions: no human TRH receptor DNA introduced (FIG. 9). As for the experimental part:
This plasmid was cleaved with SalI and ClaI. The plasmid obtained in Example 3 in which the translation frame (open reading frame) of the human TRH receptor was constructed on pUC118 was cleaved with HindIII, and repaired with a Klenow fragment, followed by addition of an SalI linker. The resulting fragment was further cleaved with SmaI, and a fragment containing the translation frame (open reading frame) of the human TRH receptor and a ClaI linker were added thereto. This was cleaved with SalI and ClaI, and thereafter, the plasmid DNA previously cleaved with SalI and ClaI was bound thereto to complete an expression plasmid. This plasmid DNA was purified by cesium chloride equilibrium density gradient centrifugation, and partially introduced into the CHO dhfr^- cell line with a gene introduction kit (CellPhect, Pharmacia) by the calcium phosphate precipitation method. The original CHO dhfr^- cell line is impossible to grow in a medium not containing a nucleoside and a nucleotide, because of lack of dhfr phenotype. […] The cells were dissolved in 500 μl of 1% SDS and 0.2N NaOH, and the radioactivity contained therein was measured by use of liquid scintillator A. In order to know the non-specific binding, a group was also prepared to which non-labeled TRH was added to a final concentration of 10 μM in addition to [^3 H] […]

[7] abbreviates: read-out: Antagonistic Rate (%) at Each Concentration (-log M).
Where [8] appears, read: read-out: Antagonistic Rate (%) at Each Concentration (-log M) (*1).

Read-outs that look alike come from different tables or passages of the source.

For `NC(=O)[C@@H]1CCCN1C(=O)[C@H](Cc1cnc[nH]1)NC(=O)[C@@H]1CCC(=O)N1` [TRH, pGlu His Pro NH2], the “Antagonism of [3H]TRH binding by unlabeled TRH, in words” value on human TRH receptor [1] is “antagonized the binding”. The “Alkaline phosphatase secretion into supernatant, in words” value at human TRH receptor [2] is on record as “alkaline phosphatase secrets into the supernatant depending on the concentration of TRH added”. The “Amount of arachidonic acid released, in words” value in the experiment with CHO dhfr- cells [3] was “no change was observed”. For the same compound, on human TRH receptor [4] (setting [7]), the inhibition at 1 pM was found to be 0%, the inhibition at 10 pM came to 0.7%, the inhibition at 0.0001 µM was 0.3% and the inhibition at 0.001 µM amounted to 7.2%. Also, at human TRH receptor [4] (setting [7]), the inhibition at 0.01 µM worked out at 52%, the inhibition at 0.1 µM was found to be 90.7%, the inhibition at 1 µM amounted to 98.7% and the inhibition at 10 µM stood at 99.7%. For the same compound, on human TRH receptor [4] (setting [8]), the inhibition at 0.0001 µM is -0.7%, the inhibition at 0.001 µM was determined as 4.2%, the inhibition at 0.01 µM came to 39.8% and the inhibition at 0.1 µM worked out at 83.9%. On human TRH receptor [4] (setting [8]), the inhibition at 1 µM was determined as 97.8% and the inhibition at 10 µM is 99.7%. The “Amount of arachidonic acid released, in words” value at human TRH receptor [5] was “increase the amount of arachidonic acid released depending upon the concentration”. Moreover, in the experiment with pituitary glands, the “Secretion of pituitary hormones, in words” value is “promoting secretion of thyroid stimulating hormone and prolactin of the pituitary glands”.
With “[L-proline-2,3,4,5-^3 H(N)]-(Pyro)Glu-His-Pro-NH2 [[^3 H] TRH]”, in the experiment with CHO dhfr- cells [6], the “Specific binding, in words” value is listed as “no specific binding was detected at all”.

The values above are taken from patent publication US5879896A, “Method of screening for inhibitors of human thyrotropin releasing hormone (TRH) receptor” (Takeda Chemical Industries, Ltd., priority 1993, dated 1999).
